Among the data in US12240862B2, “Inhibitors of peptidylarginine deiminases” (Gilead Sciences, Inc., priority 2020, dated 2025) are IC50 values, retold here.

Each structure is given as a SMILES string.

T1 sequence (Q9UM07 2-663): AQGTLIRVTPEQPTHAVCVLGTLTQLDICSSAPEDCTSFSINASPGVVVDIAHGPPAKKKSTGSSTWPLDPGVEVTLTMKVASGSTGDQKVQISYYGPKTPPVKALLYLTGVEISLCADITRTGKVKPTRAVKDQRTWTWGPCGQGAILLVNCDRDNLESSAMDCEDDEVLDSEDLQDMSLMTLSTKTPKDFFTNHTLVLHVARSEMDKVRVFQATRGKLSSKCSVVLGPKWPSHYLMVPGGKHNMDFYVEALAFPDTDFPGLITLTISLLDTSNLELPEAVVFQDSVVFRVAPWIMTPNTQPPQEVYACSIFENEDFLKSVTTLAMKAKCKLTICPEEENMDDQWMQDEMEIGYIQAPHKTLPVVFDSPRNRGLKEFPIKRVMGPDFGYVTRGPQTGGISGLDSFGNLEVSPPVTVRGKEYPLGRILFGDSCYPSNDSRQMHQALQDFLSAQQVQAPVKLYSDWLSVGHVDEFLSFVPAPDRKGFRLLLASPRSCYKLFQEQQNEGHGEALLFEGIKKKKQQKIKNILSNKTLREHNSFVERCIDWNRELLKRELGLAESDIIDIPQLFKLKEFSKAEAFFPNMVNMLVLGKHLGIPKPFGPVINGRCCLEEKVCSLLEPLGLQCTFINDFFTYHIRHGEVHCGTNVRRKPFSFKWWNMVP

This assay addresses T1, human PAD4 (Homo sapiens, UniProt Q9UM07).
T1 construct: human PAD4 (NM_012387), A2P663, was PCR amplified; His-SUMO (N, cleaved yes); made in house; host or cells: E. coli BL21(DE3)
The assay is described as follows: In vitro PAD4 BAEE biochemical assay. The note with it: human PAD4, BAEE substrate; 5 nM PAD4, 2 mM calcium chloride, 3 mM BAEE; geometric mean of multiple experiments. An outline of the steps:
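Ammonia generated from BAEE serves as the readout, measured by o-phthalaldehyde after EDTA termination. Final conditions: 5 nM human PAD4 (SUMO tag cleaved), 2 mM CaCl2, 3 mM BAEE, pH 7.6 MOPS buffer, 25 °C for 2 h following a 30-min compound preincubation.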
Consider `COc1cc(C(=O)N2CCC[C@@H](N)C2)cc2nc(-c3cc4ccc(C(C)n5cc(N)cn5)nc4n3CC3CC3)c(C)n12` (stereo partly drawn) [Example 547, [(3~{R})-3-aminopiperidin-1-yl]-[2-[6-[1-(4-aminopyrazol-1-yl)ethyl]-1-(cyclopropylmethyl)pyrrolo[2,3-b]pyridin-2-yl]-5-methoxy-3-methylimidazo[1,2-a]pyridin-7-yl]methanone], for which the IC50 was determined as 0.715 µM.

For `COc1cc(C(=O)N2[C@H]3CC[C@@H]2[C@H](N)C3)cc2nc(-c3cc4ccc([C@@H](C)NC(=O)C(C)(C)OC)nc4n3CC3CC3)c(C)n12` [Example 172, ~{N}-[(1~{R})-1-[2-[7-[(1~{R},2~{R},4~{S})-2-amino-7-azabicyclo[2.2.1]heptane-7-carbonyl]-5-methoxy-3-methylimidazo [1,2-a]pyridin-2-yl]-1-(cyclopropylmethyl)pyrrolo [2,3-b]pyridin-6-yl]ethyl]-2-methoxy-2-methylpropanamide], the IC50 turned out to be 0.0983 µM.

Regarding `COc1cc(C(=O)N2[C@H]3CC[C@@H]2[C@H](N)C3)cc2nc(-c3cc4ccc(-c5cccnc5C)nc4n3CC3CC3)c(C)n12` [Example 575, ((1R,2R,4S)-2-amino-7-azabicyclo[2.2.1]heptan-7-yl)(2-(1-(cyclopropylmethyl)-6-(2-methylpyridin-3-yl)-1H-pyrrolo[2,3-b]pyridin-2-yl)-5-methoxy-3-methylimidazo[1,2-a]pyridin-7-yl)methanone], the half-inhibitory concentration (IC50) stood at 0.13 µM.

As for `COc1cc(C(=O)N2[C@H]3CC[C@@H]2[C@H](N)C3)cc2nc(-c3cc4ccc([C@@H](C)NC(=O)N5CCC5)nc4n3CC3CC3)c(C)n12` [Example 247], the IC50 is 0.07 µM.

Take `COc1cc(C(=O)N2CCC[C@@H](N)C2)cc2nc(-c3cc4ccc([C@@H](C)NCC(F)(F)F)nc4n3CC3CC3)c(C)n12` [Example 267, [(3~{R})-3-aminopiperidin-1-yl]-[2-[1-(cyclopropylmethyl)-6-[(1~{R})-1-(2,2,2-trifluoroethylamino)ethyl]pyrrolo[2,3-b]pyridin-2-yl]-5-methoxy-3-methylimidazo[1,2-a]pyridin-7-yl]methanone]: the IC50 worked out at 0.521 µM.

As to `COc1cc(C(=O)N2CCC[C@@H](N)[C@H]2C)cc2nc(-c3cc4ccc(N(C(F)F)S(C)(=O)=O)nc4n3CC3CC3)c(C)n12` [Example 411, ~{N}-[2-[7-[(2~{R},3~{R})-3-amino-2-methylpiperidine-1-carbonyl]-5-methoxy-3-methylimidazo[1,2-a]pyridin-2-yl]-1-(cyclopropylmethyl)pyrrolo [2,3-b]pyridin-6-yl]-~{N}-(difluoromethyl) methanesulfonamide], the IC50 was determined as 0.143 µM.

Take `COc1cc(C(=O)N2C[C@H]3CC[C@@H]2[C@H](N)C3)cc2nc(-c3cc4ccc(N(C(F)F)S(C)(=O)=O)nc4n3CC3CC3)c(C)n12` [Example 381, ~{N}-[2-[7-[(1~{R},4~{S}, 6~{R})-6-amino-2-azabicyclo[2.2.2]octane-2-carbonyl]-5-methoxy-3-methylimidazo[1,2-a]pyridin-2-yl]-1-(cyclopropylmethyl)pyrrolo [2,3-b]pyridin-6-yl]-~{N}-(difluoromethyl) methanesulfonamide]: the IC50 stood at 0.538 µM.

As to `COc1cc(C(=O)N2CC[C@H]3CCCN[C@H]3C2)cc2nc(-c3cc4ccc([C@@H](C)NC(=O)C56CC(F)(C5)C6)nc4n3CC3CC3)c(C)n12` [Example 31, ~{N}-[(1~{R})-1-[2-[7-[(4~{a}~{R}, 8~{a}~{R})-2,3,4,4~{a},5,6,8,8~{a}-octahydro-1~{H}-1,7-naphthyridine-7-carbonyl]-5-methoxy-3-methylimidazo [1,2-a]pyridin-2-yl]-1-(cyclopropylmethyl)pyrrolo[2,3-b]pyridin-6-yl]ethyl]-3-fluorobicyclo[1.1.1] pentane-1-carboxamide], the IC50 is 0.487 µM.

For `COc1cc(C(=O)N2[C@H]3CC[C@@H]2[C@H](N)C3)cc2nc(-c3cc4ccc([C@@H](C)NC(=O)C56CC(Cl)(C5)C6)nc4n3CC3CC3)c(C)n12` [Example 133, ~{N}-[(1~{R})-1-[2-[7-[(1~{R},2~{R},4~{S})-2-amino-7-azabicyclo[2.2.1]heptane-7-carbonyl]-5-methoxy-3-methylimidazo [1,2-a]pyridin-2-yl]-1-(cyclopropylmethyl)pyrrolo [2,3-b]pyridin-6-yl]ethyl]-3-chlorobicyclo[1.1.1]pentane-1-carboxamide], the IC50 amounted to 0.0561 µM.

For `CCOC(=O)CC(C)c1ccc2cc(-c3nc4cc(C(=O)N5CCC[C@@H](N)C5)cc(OC)n4c3C)n(CC3CC3)c2n1` (stereo partly drawn) [Example 598, ethyl 3-[2-[7-[(3~{R})-3-aminopiperidine-1-carbonyl]-5-methoxy-3-methylimidazo [1,2-a]pyridin-2-yl]-1-(cyclopropylmethyl)pyrrolo [2,3-b]pyridin-6-yl] butanoate], the IC50 is 0.312 µM.

On to `COc1cc(C(=O)N2[C@H]3CC[C@@H]2[C@H](N)C3)cc2nc(-c3cc4ccc([C@@H](C)NC(=O)c5ccccc5)nc4n3CC3CC3)c(C)n12` [Example 176], for which the IC50 stood at 0.0887 µM.

Consider `COc1cc(C(=O)N2C[C@H]3CCN[C@H]3C2)cc2nc(-c3cc4ccc([C@@H](C)NC(=O)C56CC(F)(C5)C6)nc4n3CC3CC3)c(C)n12` [Example 21], for which the IC50 is 2.06 µM.

As for `CNC(=O)C1CC1c1c(-c2cc3ccc(N(C(F)F)S(C)(=O)=O)nc3n2CC2CC2)nc2cc(C(=O)N3CCC[C@@H](N)C3)ccn12` (stereo partly drawn) [Example 431, 2-[7-[(3~{R})-3-aminopiperidine-1-carbonyl]-2-[1-(cyclopropylmethyl)-6-[difluoromethyl (methylsulfonyl)amino]pyrrolo[2,3-b]pyridin-2-yl]imidazo[1,2-a]pyridin-3-yl]-~{N}-methylcyclopropane-1-carboxamide], the IC50 worked out at 2.03 µM.

In the case of `CC[C@](C)(O)c1ccc2cc(-c3nc4cc(C(=O)N5[C@H]6CC[C@@H]5[C@H](N)C6)cc(OC)n4c3C)n(CC3CC3)c2n1` [Example 565, [(1~{R},2~{R},4~{S})-2-amino-7-azabicyclo [2.2.1]heptan-7-yl]-[2-[1-(cyclopropylmethyl)-6-[(2~{S})-2-hydroxybutan-2-yl]pyrrolo[2,3-b]pyridin-2-yl]-5-methoxy-3-methylimidazo[1,2-a]pyridin-7-yl]methanone], the IC50 was found to be 0.159 µM.

With `COc1cc(C(=O)N2[C@H]3CC[C@@H]2[C@H](N)C3)cc2nc(-c3cc4ccc(-c5cccnc5C(F)(F)F)nc4n3CC3CC3)c(C)n12` [Example 551, [(1~{R},2~{R},4~{S})-2-amino-7-azabicyclo [2.2.1]heptan-7-yl]-[2-[1-(cyclopropylmethyl)-6-[2-(trifluoromethyl)pyridin-3-yl]pyrrolo[2,3-b]pyridin-2-yl]-5-methoxy-3-methylimidazo [1,2-a]pyridin-7-yl] methanone], the IC50 stood at 0.511 µM.

For the compound `COc1cc(C(=O)N2[C@H]3CC[C@@H]2[C@H](N)C3)cc2nc(-c3cc4ccc([C@@H](C)NC(=O)C56CC(C(F)(F)F)(C5)C6)nc4n3CC3CC3)c(C)n12` [Example 157, ~{N}-[(1~{R})-1-[2-[7-[(1~{R},2~{R},4~{S})-2-amino-7-azabicyclo[2.2.1]heptane-7-carbonyl]-5-methoxy-3-methylimidazo [1,2-a]pyridin-2-yl]-1-(cyclopropylmethyl)pyrrolo [2,3-b]pyridin-6-yl]ethyl]-3-(trifluoromethyl)bicyclo [1.1.1]pentane-1-carboxamide], the IC50 turned out to be 0.133 µM.

Consider `COc1cc(C(=O)N2[C@H]3CC[C@@H]2[C@H](N)[C@H](OCC(F)F)C3)cc2nc(-c3cc4ccc([C@@H](C)NC(=O)C56CC(F)(C5)C6)nc4n3CC3CC3)c(C)n12` [Example 18], for which the IC50 was 0.578 µM.

In the case of `Cc1c(-c2cc3ccc(N(C(F)F)S(C)(=O)=O)nc3n2CC2CC2)nc2cc(C(=O)N3CCC[C@@H](N)C3)cc(C3CC3)n12` [Example 428, ~{N}-[2-[7-[(3~{R})-3-aminopiperidine-1-carbonyl]-5-cyclopropyl-3-methylimidazo [1,2-a]pyridin-2-yl]-1-(cyclopropylmethyl)pyrrolo [2,3-b]pyridin-6-yl]-~{N}-(difluoromethyl) methanesulfonamide], the IC50 worked out at 1.02 µM.

Take `COc1cc(C(=O)N2[C@H]3CC[C@@H]2[C@H](N)C3)cc2nc(-c3cc4ccc([C@@H](C)NC(=O)NC5COC5)nc4n3CC3CC3)c(C)n12` [Example 229, 1-[(1~{R})-1-[2-[7-[(1~{R},2~{R},4~{S})-2-amino-7-azabicyclo[2.2.1]heptane-7-carbonyl]-5-methoxy-3-methylimidazo [1,2-a]pyridin-2-yl]-1-(cyclopropylmethyl)pyrrolo [2,3-b]pyridin-6-yl]ethyl]-3-(oxetan-3-yl)urea]: the IC50 worked out at 0.108 µM.

As to `COc1cc(C(=O)N2[C@H]3CC[C@@H]2[C@H](N)C3)cc2nc(-c3cc4ccc(C(C)(C)N)nc4n3CC3CC3)c(C)n12` [Example 570, [(1~{R},2~{R},4~{S})-2-amino-7-azabicyclo [2.2.1]heptan-7-yl]-[2-[6-(2-aminopropan-2-yl)-1-(cyclopropylmethyl)pyrrolo [2,3-b]pyridin-2-yl]-5-methoxy-3-methylimidazo[1,2-a]pyridin-7-yl]methanone], the concentration for half-maximal inhibition (IC50) worked out at 0.227 µM.

As to `COc1cc(C(=O)N2[C@H]3CC[C@@H]2[C@H](N)C3)cc2nc(-c3cc4ccc([C@@H](C)NC(=O)NC(C)(C)C(F)(F)F)nc4n3CC3CC3)c(C)n12` [Example 213, 1-[(1~{R})-1-[2-[7-[(1~{R},2~{R},4~{S})-2-amino-7-azabicyclo[2.2.1]heptane-7-carbonyl]-5-methoxy-3-methylimidazo [1,2-a]pyridin-2-yl]-1-(cyclopropylmethyl)pyrrolo [2,3-b]pyridin-6-yl]ethyl]-3-(1,1,1-trifluoro-2-methylpropan-2-yl)urea], the IC50 was found to be 0.0469 µM.
